Measurements taken from ChEMBL document CHEMBL4422625, “Structure Elucidation, Conformation, and Configuration of Cytotoxic 6-Heptyl-5,6-dihydro-2 H-pyran-2-ones from Hyptis Species and Their Molecular Docking to α-Tubulin” (J Nat Prod, 2019).

What was measured:
Assay type in all cases: functional, cell-based
MCF7 = experiment: Cytotoxicity against human MCF7 cells after 48 hrs by sulforhodamine B assay; conditions: MCF7, 48 h
HeLa = experiment: Cytotoxicity against human HeLa cells after 48 hrs by sulforhodamine B assay
HCT-15 = experiment: Cytotoxicity against human HCT15 cells after 48 hrs by sulforhodamine B assay; conditions: HCT-15, 48 h

| Structure (SMILES) | IC50 (MCF7) | IC50 (HeLa) | IC50 (HCT-15) |
| --- | --- | --- | --- |
| CCCC[C@@H](/C=C\[C@@H]1OC(=O)C[C@@H](OC)[C@@H]1OC(C)=O)OC(C)=O | > 10 µM | > 10 µM | > 10 µM |
| CCCC[C@H](/C=C\[C@@H]1OC(=O)C=C[C@@H]1O)OC(C)=O | 1.3 µM | 1.4 µM | 9.5 µM |
| CCCC[C@H](O)/C=C\[C@@H]1OC(=O)C=C[C@@H]1O | 5.9 µM | 6.2 µM | 7.4 µM |
| CCCC[C@H](O)/C=C\[C@@H]1OC(=O)C[C@@H](OC)[C@@H]1O | > 10 µM | > 10 µM | > 10 µM |
| CCCC[C@H](/C=C\[C@@H]1OC(=O)C=C[C@@H]1OC(C)=O)OC(C)=O | 0.5 µM | 0.7 µM | 0.8 µM |
| CCCC[C@H](OC(C)=O)[C@@H](O)[C@H](O)[C@@H]1OC(=O)C=C[C@@H]1OC(C)=O | 9.8 µM | 6.9 µM | 9.9 µM |
| CCCC[C@H](OC(C)=O)[C@@H](OC(C)=O)[C@H](OC(C)=O)[C@@H]1OC(=O)C=C[C@@H]1OC(C)=O | 7.7 µM | 2.7 µM | > 10 µM |
| CCCC[C@@H](/C=C\[C@@H]1OC(=O)C=C[C@@H]1OC(C)=O)OC(C)=O [PECTINOLIDE A] | 3.2 µM | 3.2 µM | 5.7 µM |
| CCCC[C@H](O)/C=C\[C@@H]1OC(=O)C=C[C@@H]1OC(C)=O [PECTINOLIDE B] | 9.3 µM | 4.1 µM | 5.2 µM |
| CCCC[C@@H](/C=C\[C@@H]1OC(=O)C=C[C@@H]1O)OC(C)=O [PECTINOLIDE C] | 1 µM | 0.3 µM | 2.3 µM |
| C/C=C/C[C@H](C)[C@@H](OC)[C@@H](C)[C@H](O)C[C@H]1OC(=O)C=C[C@H]1CC [PIRONETIN] | 0.015 µM | 0.092 µM | < 0.015 µM |
| CC[C@]1(O)C[C@@H]2CN(CCc3c([nH]c4ccccc34)[C@@](C(=O)OC)(c3cc4c(cc3OC)N(C)[C@H]3[C@@](O)(C(=O)OC)[C@H](OC(C)=O)[C@]5(CC)C=CCN6CC[C@]43[C@@H]65)C2)C1 [VINBLASTINE] | 0.012 µM | 0.011 µM | 0.011 µM |
